{"source": "patent US20220305021A1", "about": "“METHODS OF TREATING AND/OR PREVENTING PSORIASIS” (Athenex, Inc., priority 2019, published 2022)", "key": {"subjects with psoriasis": {"tested_on": "subjects with psoriasis", "assay": "Phase I clinical trial of topical KX-01 ointment in subjects with psoriasis", "type": "in vivo, human", "method": "Six subjects with psoriasis with Total Area Score (TAS) of 4-8 (based on the sum of the scores of erythema, elevation and scaling) were assessed. […] In stage I, each subject will be assigned randomly to KX-01 (0.01%, n=6) or placebo (n=2) before the first administration of investigational medicinal product (KX-01 or placebo). 22 subjects are recruited in three stages. Each subject in stage I will receive treatment for two weeks, followed by one-week wash-out, another two-week treatment, and then two-week follow-up. After a satisfactory collaborative review for the safety data of the lower strength (0.01%) at the end of follow up for each subject, if there is no major safety concern (major safety concern is defined as ≥2 subjects in the KX-01 group having ≥CTCAE Grade 3 or severe adverse drug reaction), as well as an unanimous consent by the sponsor and the principle investigator(s), stage II study begins where each subject is assigned randomly to KX-01 (0.1%, n=6) or placebo (n=2) before the first administration. Each subject in the stage II will receive treatment for four weeks, followed by a two-week follow-up. After a satisfactory collaborative review for the safety data of the lower strength (0.1%) at the end of follow up for each subject, if there is no major safety concern, stage III study follows. Stage III comprises a single arm study (n=6), where each subject will receive 1% KX-01 once daily for consecutive five days and then receive post-treatment follow-up on day 6, 15, and 29. • Stage I: 6 subjects (KX-01 0.01% [0.1 mg/g])+2 subjects (placebo) • Stage II: 6 subjects (KX-01 0.1% [1.0 mg/g])+2 subjects (placebo) • Stage III: 6 subjects (KX-01 1% [10 mg/g]) Subjects visit the study center for ambulatory visits: • Stage I (See Tables 1A and 1B) • Visit 1: Screening, within 28 days before first application of IMP • Visit 2: Week 1 (Day 1/Baseline) • Visit 3: Week 2 (Day 8±3/After consecutive 1-week treatment) • Visit 4: Week 3 (Day 15±3/After consecutive 2-week treatment) • Visit 5: Week 4 (Day 22±3/After 1 week wash-out) • Visit 6: Week 6 (Day 36±3/After another consecutive 2-week treatment) • Visit 7: Week 8 (Day 50±3/After 2-week post-treatment follow-up) • Stage II (See Tables 2A and 2B) • Visit 1: Screening, within 28 days before first application of IMP • Visit 2: Week 1 (Day 1/Baseline) • Telephone interview (Day 8±3, after consecutive 1-week treatment) • Visit 3: Week 3 (Day 15±3/After consecutive 2-week treatment) • Visit 4: Week 5 (Day 29±3/After consecutive 4-week treatment) • Visit 5: Week 7 (Day 43±3/After 2-week post-treatment follow-up) • […] (See Table 3) • Visit 1: Screening, within 28 days before first application of IMP • Visit 2: Day 1, baseline • Visit 3: Day 6±1, after consecutive 5-day treatment • Visit 4: Day 15±2, after 10-day post-treatment follow up • Visit 5: Day 29±2, after 24-day post-treatment follow-up The IMP (treatment or placebo) is applied to a single lesion. […] For stage I, each subject receives IMP for 14 consecutive days, followed by 1-week wash-out period and then receives IMP for another 14 consecutive days. For stage II, each subject receives IMP for 28 consecutive days. For stage III, each subject receives IMP once daily for consecutive five days. For stage I and II, blood samples for the determination of KX-01 concentrations are collected prior to the morning dose at the designated ambulatory visits to the study center (Stage I: Day 1, 8±3, 15±3, 22±3 Stage II: Day 1, 15±3, 29±3) (See Table 4). For stage III, blood samples for drug concentrations are collected prior to the dose on day 1, and day 6±1, day 15±2. The duration of this study is approximately three months for each subjects (See Table 4). On day 1, a single treatment lesion consisting of active psoriasis skin lesion of at least 16 cm^2 in size with upper limit of 625 cm^2 for stage I and II, and at least 16 cm^2 and no more than 100 cm^2 (≥16 cm^2 &≤100 cm^2) in size for stage III is selected for each subject. […]"}, "rats": {"tested_on": "rats", "assay": "Twice daily dermal administration of KX-01 ointment to rats (six days)", "type": "in vivo, rat", "method": "Subjects in clinical studies of KX-01 ointment where administered KX-01 ointment up to 250 mg (5 mg/cm^2 [administration amount]×25 cm^2 [administration area]×2 [safety factor for larger application area]). This amount of the 0.01% or 0.1% concentration of ointment contains 0.025 mg or 0.25 mg of KX-01. Therefore, the amount of KX-01 delivered to the skin of the average 60 kg subject is 0.025 or 0.25 mg/60 kg/dose, or 0.00042 or 0.0042 mg/kg/dose. […] The safety margin in administered dermal KX-01 dose indicates little risk of adverse systemic effects in humans under the conditions of the clinical studies of KX-01 ointment based on nonclinical studies in animals."}, "rabbits": {"tested_on": "rabbits", "assay": "Twice daily dermal administration of KX-01 ointment to rabbits (seven days, single dose on day eight)", "type": "in vivo, rabbit", "conditions": "up to 2.0667 mg/kg KX-01 in ointment, seven days twice daily dosing with a single dose on day eight"}, "mini-pigs": {"tested_on": "mini-pigs", "assay": "Once daily KX-01 1% ointment on mini-pigs, occluded skin, 28 days", "type": "in vivo, mini-pig", "text": "KX-01 1% once daily administration of KX-01 ointment was examined on the mini-pigs on 10% of body surface area with skin being occluded for consecutive 28 days."}, "[1]": {"conditions": "1% ointment daily for five days, observed in one subject"}, "[2]": {"conditions": "KX-01 ointment 0.01% twice daily dose regimen"}, "[3]": {"conditions": "1% ointment once daily, 10% of body surface area, occluded, 28 consecutive days"}}, "data": [{"smiles": "O=C(Cc1ccc(-c2ccc(OCCN3CCOCC3)cc2)cn1)NCc1ccccc1", "note": "[KX-01, Tirbanibulin]", "values": [{"measurement": "Systemic absorption of KX-01", "setting": "subjects with psoriasis; 1% ointment daily for five days, topical", "result": "no significant absorption"}, {"measurement": "Psoriatic plaque thickness", "setting": "subjects with psoriasis; 1% ointment daily for five days, another subject of six", "result": "improvement"}, {"measurement": "Skin burning sensation (adverse event severity)", "setting": "subjects with psoriasis; [1]", "result": "mild (grade-1)"}, {"measurement": "Skin irritation (adverse event severity)", "setting": "subjects with psoriasis; [1]", "result": "mild (grade-1)"}, {"measurement": "Skin scaling", "setting": "subjects with psoriasis; 1% ointment daily for five days, one subject of six", "result": "complete resolution"}, {"measurement": "Tolerability of treatment", "setting": "subjects with psoriasis; 1% ointment daily for five days, six subjects", "result": "well-tolerated"}, {"measurement": "TAS score (sum of erythema, elevation and scaling)", "setting": "subjects with psoriasis; 1% ointment daily for five days, six subjects, baseline TAS 4-8", "result": "All subjects showed an improvement"}, {"measurement": "Clinical activity", "setting": "subjects with psoriasis; KX-01 (Tirbanibulin) 1% ointment daily for five days, first cohort of subjects with psoriasis", "result": "Clinical activity signals were observed"}, {"measurement": "Serious adverse events (SAE)", "setting": "subjects with psoriasis; [2]", "result": "No serious adverse event"}, {"measurement": "Treatment-emergent adverse events related to drug", "setting": "subjects with psoriasis; [2]", "result": "Only one treatment-emergent adverse event, Grade 1 tenderness"}, {"measurement": "Tolerability", "setting": "subjects with psoriasis; KX-01 ointment 0.01% twice daily dose regimen, most subjects", "result": "excellent and good"}, {"measurement": "Safety profile", "setting": "subjects with psoriasis; KX-01 ointment in the treatment of psoriasis", "result": "Good safety profile"}, {"measurement": "Safety margin: clinical dermal dose times lower than rat 12.4 mg/kg/dose", "setting": "rats; 0.01% ointment, 0.025 mg/60 kg/dose (0.00042 mg/kg/dose) in humans vs 12.4 mg/kg/dose in rats", "result": "approximately 29700 times"}, {"measurement": "Safety margin: clinical dermal dose times lower than rat 12.4 mg/kg/dose", "setting": "rats; 0.1% ointment, 0.25 mg/60 kg/dose (0.0042 mg/kg/dose) in humans vs 12.4 mg/kg/dose in rats", "result": "~2970", "unit": "times"}, {"measurement": "Plasma concentrations of KX-01", "setting": "rats; rat, in vivo", "result": "very low"}, {"measurement": "Skin irritation", "setting": "rabbits", "result": "mild to moderate"}, {"measurement": "Systemic adverse effects", "setting": "rabbits", "result": "no signs of systemic adverse effects"}, {"measurement": "Body weight", "setting": "mini-pigs; [3]", "result": "decreased"}, {"measurement": "Edema at the drug application site", "setting": "mini-pigs; [3]", "result": "very slight to slight"}, {"measurement": "Erythema and eschar at the drug application site", "setting": "mini-pigs; [3]", "result": "very slight to severe"}, {"measurement": "Hepatic, renal, and haematological profiles", "setting": "mini-pigs; [3]", "result": "changes"}, {"measurement": "Other skin findings at the drug application site", "setting": "mini-pigs; [3]", "result": "desquamation, fissuring, scab, ulceration"}, {"measurement": "Reversibility of findings", "setting": "mini-pigs; by the last week of recovery after 28 days of 1% ointment", "result": "Most of these findings were resolved"}]}]}
